Assay results from article PMC4382154, “Screening of the Pan-African Natural Product Library Identifies Ixoratannin A-2 and Boldine as Novel HIV-1 Inhibitors” (PLoS ONE, 2015).
Read-outs that look alike come from different tables or passages of the source.

Key:
[1] = system: HIV-1NL4-3; test: HIV-1 replication assay in PBMCs (p24Gag ELISA); assay type: cell-based; conditions: Day 12
Experimental: PBMCs from HIV-1 negative subjects, purchased commercially (StemCell Technologies, Vancouver, Canada), were maintained in RPMI-1640 media (Sigma) supplemented with penicillin/streptomycin plus 10% fetal calf serum (R10+). 72 h prior to viral infection, PBMCs were stimulated by addition of 5 μg/mL phytohaemaglutanin (PHA) (Day 0) and maintained in R10+ medium supplemented with 100 units/mL human IL-2. At Day 3 following cellular activation, 3x10^5 cells were infected with HIV-1NL4-3 at a multiplicity of infection of 0.003 (0.3% infected cells) and incubated at 37°C for 6h, followed by wash and re-suspension in fresh R10+ medium supplemented with 100 units/mL human IL-2 and with or without compounds at defined concentrations. Culture supernatants were collected and replaced with fresh medium supplemented with human IL-2 every 3 days (i.e., Days 6, 9, and 12) with or without fresh compounds. Viral replication at day 12 was monitored by measuring cell culture supernatant levels of p24^Gag by ELISA (XpressBio, Frederick, MD) following manufacturer’s instructions.

[2] = system: HIV-1RT; test: microbe, parasite or virus in culture; assay type: cell-based; conditions: for EC50: Human immunodeficiency virus 1, CEM-GXR, 96 h, read-out: EC50 HIV-1RT
Experimental: CEM-GXR cells are an immortalized CD4+ T-lymphocyte line engineered that naturally express the HIV-1 coreceptor CXCR4 and have been further engineered to express the HIV-1 co-receptor CCR5 and a Tat-driven LTR-GFP expression cassette. As such, intracellular GFP expression indicates HIV-1 infection [26]. Cultures of 10^5 CEM-GXR cells were seeded into 96-well plates with RPMI-1640 media (Sigma) supplemented with penicillin/streptomycin plus 20% fetal calf serum (R20+), infected with HIV-1 at a multiplicity of infection of 0.03 (to achieve 3% infected cells on Day 2), and incubated at 37°C and 5% CO2. 24 hours later, cells were pelleted at 750 g and resuspended in R20+ containing compound or 0.1% DMSO. […] Cells were then incubated at 37°C and 5% CO2 for an additional 72 h. 5,000 cells from each culture were measured for cell toxicity and GFP expression by flow cytometry. […] Background GFP expression in uninfected cultures was set at 0.05% GFP-positive cells. For each experiment, all data points were obtained in triplicate. All data are reported as the mean ± s.e.m. from at least 3 independent experiments performed with different virus stocks and/or performed on different days. […] EC50 and CC50 values for each compound were calculated from at least four concentrations. Statistical analyses were performed using Student’s unpaired t test, with a p value < 0.05 plus a Bonferroni correction to adjust for multiple comparisons considered significant.

[3] = system: HIV-1NL4-3; test: microbe, parasite or virus in culture; assay type: cell-based; conditions: for selectivity index (SI): CC50 over EC50 in CEM-GXR cells; for EC50: read-out: HIV-1NL4-3 inhibition (EC50); for percent GFP-positive (HIV-infected) cells: 100 μM
Experimental: (§1) CEM-GXR cells are an immortalized CD4+ T-lymphocyte line engineered that naturally express the HIV-1 coreceptor CXCR4 and have been further engineered to express the HIV-1 co-receptor CCR5 and a Tat-driven LTR-GFP expression cassette. As such, intracellular GFP expression indicates HIV-1 infection. Cultures of 10^5 CEM-GXR cells were seeded into 96-well plates with RPMI-1640 media (Sigma) supplemented with penicillin/streptomycin plus 20% fetal calf serum (R20+), infected with HIV-1 at a multiplicity of infection of 0.03 (to achieve 3% infected cells on Day 2), and incubated at 37°C and 5% CO2. 24 hours later, cells were pelleted at 750 g and resuspended in R20+ containing compound or 0.1% DMSO. […] Cells were then incubated at 37°C and 5% CO2 for an additional 72 h. 5,000 cells from each culture were measured for cell toxicity and GFP expression by flow cytometry. Flow cytometry data were analyzed using FlowJo v. 8.8.7 software (FlowJo LLC, Ashland, OR). […] Background GFP expression in uninfected cultures was set at 0.05% GFP-positive cells. For each experiment, all data points were obtained in triplicate. All data are reported as the mean ± s.e.m. from at least 3 independent experiments performed with different virus stocks and/or performed on different days. However, all experiments that compare HIV-1NL4-3 and mutant HIV-1 were performed in parallel. EC50 and CC50 values for each compound were calculated from at least four concentrations. Statistical analyses were performed using Student’s unpaired t test, with a p value < 0.05 plus a Bonferroni correction to adjust for multiple comparisons considered significant.
To assess the effects of these eight compounds on cell viability and HIV-1 replication, we infected a GFP-reporter CEM CD4+ T cell line (CEM-GXR) with the NL4-3 strain of HIV-1 (HIV-1NL4-3). Briefly, cells were infected with HIV-1NL4-3 at a multiplicity of infection of 0.03 (Day 0), followed by removal of HIV-1 and addition of compound (or 0.1% DMSO vehicle control) 24 hours later (Day 1) and incubation for an additional 72 hours to allow HIV-1 spread (Days 2–4). On Days 2 and/or 4, the percent HIV-1 infected (i.e., GFP-expressing) cells was measured by flow cytometry. Cell viability was assessed by measuring the percentage of cells displaying normal forward- and side-scatter parameters in drug-treated, HIV-1 infected cultures compared to 0.1% DMSO-treated, HIV-1 infected control cultures. […] HIV-1NL4-3 replication was unaffected by the presence of 0.1% DMSO vehicle control (Fig. 2B).

[4] = system: HIV-1INT; test: HIV-1INT replication in CEM-GXR cells; assay type: cell-based; conditions: for EC50: Human immunodeficiency virus 1, CEM-GXR, 96 h, read-out: EC50 HIV-1INT
Experimental: (§2) HIV-1Δvpu was constructed by digesting plasmid p210-13 3’ Δ-vpu with EcoRI and NheI enzymes. The resulting DNA fragment was then ligated into wild-type pNL4-3 plasmid digested with the same enzymes. HIV-1Δvpu and HIV-1NL4-3 viral stocks were prepared by transfection of HEK-293T cells, as previously described. Patient plasma-HIV-1 RNA sequences were analyzed for resistance mutations using the HIV Drug Resistance Database Genotype Resistance Interpretation Algorithm (hivdb.stanford.edu). Recombinant HIV-1NL4-3 expressing patient-derived HIV-1 sequences harboring resistance mutations to protease and reverse transcriptase inhibitors (HIV-1PR+RT), reverse transcriptase inhibitors (HIV-1RT), and integrase inhibitors (HIV-1INT) were generated by homologous recombination following co-transfection as reported.
as §1
(§3) To investigate the mechanisms by which ixoratannin A-2 and boldine may block HIV-1 replication, we used a previously-reported HIV-1NL4-3 strain lacking the Vpu coding region (HIV-1Δvpu). We also constructed recombinant HIV-1NL4-3 strains harboring protease, reverse transcriptase, and/or integrase sequences of HIV-1 strains from patients who had developed resistance to the protease inhibitor Indinavir (IND), the non-nucleoside reverse transcriptase inhibitor Efavirenz (EFV), and/or the integrase inhibitor Raltegravir (RAL) (denoted HIV-1PR+RT, HIV-1RT, and HIV-1INT, respectively). Re-sequencing of the recombinant viruses confirmed the presence of multiple mutations known to confer resistance to IND, EFV, and/or RAL (Table 2).

[5] = PBMC cytotoxicity (ViaCount Assay); assay type: cell-based; conditions: human, all assessed concentrations, read-out: PBMC viability relative to PBMCs in 0.1% DMSO
Experimental: Cytotoxicity was determined by ViaCount Assay (Millipore). Briefly, Day 3 PHA-activated PBMCs (3*10^5) were cultured in R10+ supplemented with 100 units/mL human IL-2 in the presence of 0.1% DMSO or compounds at defined concentrations. At Day 5, 15 μL of each PBMC culture was mixed with Guava ViaCount Reagent at a 1:10 dilution. Data were collected using a Guava EasyCyte HT Flow Cytometer (Millipore).

[6] = system: HIV-1PR+RT; test: HIV-1PR+RT replication in CEM-GXR cells; assay type: cell-based; conditions: for HIV-1PR+RT replication fold higher than HIV-1NL4-3: 75 μM; for EC50: Human immunodeficiency virus 1, CEM-GXR, 96 h, read-out: EC50 HIV-1PR+RT
Experimental: as §2, §1, §3

[7] = system: hERG potassium channel; design: method as in PMID 24963621; conditions: two electrode voltage clamp, Xenopus oocytes; read-out: IC50 hERG potassium channel currents; cited from earlier work
[8] = concentrations up to 75 or 100 μM, CEM-GXR cells

SMILES: Oc1cc(O)c2c(c1)OC1(c3ccc(O)c(O)c3)Oc3c4c(c5c(c3C2C1O)OC1(c2ccc(O)c(O)c2)Oc2cc(O)cc(O)c2C5C1O)OC(c1ccc(O)c(O)c1)C(O)C4 (stereo not shown) [ixoratannin A-2]
- reduced HIV-1 replication in PBMCs (p24Gag) ([1]; 25 μM): 39.0%
- EC50 [2]: 33.7 µM
- selectivity index (SI) [3]: 1.7
- EC50 ([3]; Human immunodeficiency virus 1, 96 h, CEM-GXR cells, Day 4): 34.4 µM
- HIV-1INT replication fold higher than HIV-1NL4-3 ([4]; 75 μM, CEM-GXR cells): 1.5 fold
- EC50 [4]: 38.4 µM
- viability ([5]; PHA-activated PBMCs): > 85%
- HIV-1PR+RT replication fold higher than HIV-1NL4-3 ([6]; CEM-GXR cells): 1.5 fold
- EC50 [6]: 36.4 µM

SMILES: COc1cc2c(cc1O)C[C@H]1c3c(cc(O)c(OC)c3-2)CCN1C [boldine]
- reduced HIV-1 replication in PBMCs (p24Gag) ([1]; 100 μM): 47.0%
- IC50 [7]: 19.3 µM
- EC50 [2]: > 100 µM
- inhibition of HIV-1RT [2, 8]: < 50%
- percent GFP-positive (HIV-infected) cells ([3]; Day 2, HIV-1NL4-3-infected CEM-GXR cells (infected control 3.14)): 2.17%
- percent GFP-positive (HIV-infected) cells ([3]; Day 4, HIV-1NL4-3-infected CEM-GXR cells (infected control 10.80)): 4.09%
- selectivity index (SI) [3]: 4.1
- EC50 ([3]; Human immunodeficiency virus 1, CEM-GXR, 96 h): 50.2 µM
- EC50 [4]: > 100 µM
- inhibition of HIV-1INT [4, 8]: < 50%
- viability [5]: > 85%
- HIV-1PR+RT replication fold greater vs. HIV-1NL4-3 ([6]; 25 μM, CEM-GXR cells): 1.4 fold
- HIV-1PR+RT replication fold higher than HIV-1NL4-3 ([6]; CEM-GXR cells): 1.5 fold
- EC50 [6]: > 100 µM
- HIV-1PR+RT replication fold increased vs. HIV-1NL4-3 ([6]; concentration not stated): 1.4 fold
- inhibition of HIV-1PR+RT [6, 8]: < 50%
